The values that follow come from PubChem BioAssay (NCI).

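All cell lines were grown in 96-well plates and treated with compound for 48 hours. The concentration for 50% growth inhibition is given as GI50. TGI marks complete inhibition of growth.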 A value given as a limit tells only on which side of the number the result lay.

Experiment in all cases: NCI anticancer screen, dose series, 48 h
For assay [1], the system named is SF-268 CNS.
For assay [2], the system named is SK-MEL-5 melanoma.
Assay [3] relates to OVCAR-3 ovarian.
The test system of assay [4] is HL-60(TB) leukemia.
For assay [5], the system named is CAKI-1 renal.
Assay [6] has as its system ACHN renal.
The subject of assay [7] is SF-539 CNS.
For assay [8], the system named is SF-295 CNS.
Assay [9] has as its system HT29 colon.
In assay [10] the test system is LOX IMVI melanoma.

On to `Nc1nc(SCC(=O)O)[nH]c(=O)c1N`, for which the TGI in assay [1], in assay [2], in [3], in [4], in assay [5] and in assay [6] was above 100 µM in each case. Besides, the TGI in assay [7] was above 100 µM; in assay [8] it was above 100 µM; in assay [9] it was above 100 µM; in assay [10], 42.8 µM.

On to `Cc1ccc2c(/C=C/C(=O)c3cc(CN4CCOCC4)c(O)c4nc(C)ccc34)cc(CN3CCOCC3)c(O)c2n1`, for which the GI50 in assay [1] was 0.81 µM; in assay [2] it was 0.581 µM; in assay [3], 0.875 µM; in assay [4], 0.272 µM; in assay [5] it was 0.297 µM; in [6], 0.535 µM. The GI50 is 0.459 µM in assay [7], 0.765 µM in assay [8], 1.64 µM in [9] and 0.454 µM in assay [10]. Further, the TGI was 8.66 µM in assay [1]; 2.32 µM in [2]; 4.6 µM in [3]; 0.677 µM in assay [4]; 1.53 µM in assay [5]; 2.06 µM in assay [6]. The TGI in assay [7] turned out to be 2.02 µM; in assay [8], 10.3 µM; in [9], 3.39 µM; in [10], 1.79 µM.

On to `Clc1ccc(Nc2ccnc(NCCNc3ccnc4cc(Cl)ccc34)n2)cc1`, for which the GI50 in [1] is 1.45 µM; in assay [2], 1.31 µM; in assay [3], 1.36 µM; in assay [4], 2.09 µM; in assay [5], 1.59 µM; in [6], 1.63 µM. Moreover, the GI50 in assay [7] was 1.3 µM; in [8], 1.16 µM; in assay [9], 0.615 µM; in assay [10], 1.29 µM. Also, the TGI in [1] is 2.82 µM; in [2] it was 2.59 µM; in assay [3], 2.69 µM; in assay [4], 4.92 µM; in assay [5], 3.01 µM; in assay [6], 3.09 µM. The TGI was 2.8 µM in [7], 2.42 µM in assay [8], 2.07 µM in assay [9] and 2.62 µM in assay [10].

In the case of `COc1ccc(-c2nc3sccn3c2/C=C/C(=O)c2cc(OC)c(OC)c(OC)c2)cc1OC`, the GI50 in assay [1] was 2.36 µM; in [2] it was 1.54 µM; in [3], 2.18 µM; in assay [4], 1.84 µM; in assay [5], 3.01 µM; in [6], 3.24 µM. Besides, the GI50 in assay [7] is 1.78 µM; in [8] it was 3.08 µM; in [9], 3.48 µM; in assay [10], 2.6 µM. In addition, the TGI in assay [1] is 6.44 µM; in assay [2], 2.99 µM; in assay [3] it was 5.71 µM; in assay [4] it was 4.98 µM; in assay [5], above 100 µM; in assay [6], above 100 µM. For the same molecule, the TGI in assay [7] came out at 3.74 µM; in [8] it was 24 µM; in assay [9], 9.88 µM; in assay [10], 10 µM.

In the case of `CCN(Cc1ccc(F)cc1F)c1ccc(CO)c(Cl)c1`, the GI50 in assay [1] is 22.7 µM; in assay [2], 5.75 µM; in assay [3] it was 0.389 µM; in assay [4], 8.47 µM; in assay [5], 5.11 µM; in assay [6] it was 14.1 µM. For the same molecule, the GI50 in assay [7] was 16.1 µM; in [8], 0.513 µM; in assay [9] it was 5.65 µM; in assay [10], 14.4 µM. Moreover, the TGI in [1] was above 66.9 µM; in [2] it was 20.5 µM; in [3] it was 2.07 µM; in assay [4], 38.1 µM; in assay [5] it was above 54.1 µM; in [6] it was 38.3 µM. The TGI worked out at 31.7 µM in [7], 14.7 µM in assay [8], 30.4 µM in [9] and 29 µM in [10].

For the molecule `O=[N+]([O-])c1ccc2c(c1)OCCOCCOc1ccc([N+](=O)[O-])cc1OCCOCCO2`, the TGI in [1], in assay [2], in assay [3], in assay [4], in assay [5] and in [6] was above 100 µM throughout. The TGI in assay [7], in assay [8], in assay [9] and in assay [10] was above 100 µM in each case.

Turning to `Clc1ccc(N2COOC3(OOC2)C2CC4CC(C2)CC3C4)cc1`, the GI50 was 5.88 µM in assay [1]; 1.25 µM in assay [2]; 13.2 µM in assay [3]; 1.55 µM in assay [4]; 0.299 µM in assay [5]; 0.622 µM in assay [6]. The GI50 in assay [7] was 4.74 µM; in assay [8], 2.99 µM; in assay [9], 9.93 µM; in assay [10], 0.15 µM. Moreover, the TGI is above 67.4 µM in assay [1]; above 24.2 µM in assay [2]; 39.1 µM in assay [3]; 8.27 µM in [4]; 19.5 µM in assay [5]; 6.03 µM in assay [6]. The TGI in [7] is 59.3 µM; in assay [8], 17.9 µM; in assay [9], above 60.1 µM; in [10], 2.44 µM.

On to `CC(C)(C)c1ccc(Oc2ccc(C#N)c(C#N)c2)c(C(C)(C)C)c1`, for which the TGI in assay [1] is above 100 µM; in assay [2], above 100 µM; in assay [3] it was above 100 µM; in assay [4] it was 32.3 µM; in assay [5], above 100 µM; in assay [6], above 100 µM. The TGI was above 100 µM in [7], above 100 µM in assay [8], above 100 µM in assay [9] and above 54.6 µM in assay [10].
